For data set [1], the system named is Cryptococcus neoformans. The experiment in a line: Antifungal activity against Cryptococcus neoformans ATCC 90113 after 24 to 72 hrs by M27-A2 CLSI method. Type of data set: functional.
The test system of data set [2] is Nakaseomyces glabratus. Kind of data set: Antifungal activity against Candida glabrata ATCC 90030 after 24 to 72 hrs by M27-A2 CLSI method. The format is functional.
Data set [3] relates to Pichia kudriavzevii. Kind of data set: Antifungal activity against Candida Krusei ATCC 6258 after 24 to 72 hrs by M27-A2 CLSI method. The format is functional.
The test system of data set [4] is Candida albicans. The experiment in a line: Antifungal activity against Candida albicans ATCC 90028 after 24 to 72 hrs by M27-A2 CLSI method. Type of data set: functional.
Data set [5] relates to Aspergillus fumigatus. Kind of data set: Antifungal activity against Aspergillus fumigatus ATCC 204305 at 20 ug/ml after 24 to 72 hrs by M27-A2 CLSI method. Type of data set: functional, organism-based.
The subject of data set [6] is Nakaseomyces glabratus. Kind of data set: Antifungal activity against Candida glabrata ATCC 90030 at 20 ug/ml after 24 to 72 hrs by M27-A2 CLSI method. Type of data set: functional, organism-based.
For data set [7], the system named is Aspergillus fumigatus. The experiment in a line: Antifungal activity against Aspergillus fumigatus ATCC 204305 after 24 to 72 hrs by M27-A2 CLSI method. The format is functional, organism-based.
For data set [8], the system named is Candida albicans. Kind of data set: Antifungal activity against Candida albicans ATCC 90028 at 20 ug/ml after 24 to 72 hrs by M27-A2 CLSI method. Type of data set: functional, organism-based.
In data set [9] the test system is Cryptococcus neoformans. The experiment in a line: Antifungal activity against Cryptococcus neoformans ATCC 90113 at 20 ug/ml after 24 to 72 hrs by M27-A2 CLSI method. Type of data set: functional, organism-based.
The test system of the next data set is BT-549. The experiment in a line: Cytotoxicity against human BT549 cells at 10 ug/ml by neutral red assay. Type of data set: cell-based.
The test system of the next data set is SK-OV-3. The experiment in a line: Cytotoxicity against human SKOV3 cells at 10 ug/ml by neutral red assay. The format is cell-based.
The subject of another data set is Vero. Kind of data set: Cytotoxicity against african green monkey Vero cells at 10 ug/ml by neutral red assay. Particulars: chlorocebus sabaeus. The format is cell-based.
Another data set has as its system LLC-PK1. The experiment in a line: Cytotoxicity against pig LLC-PK1 cells at 10 ug/ml by neutral red assay. Type of data set: cell-based, Sus scrofa.
The test system of data set [10] is Pichia kudriavzevii. Kind of data set: Antifungal activity against Candida Krusei ATCC 6258 at 20 ug/ml after 24 to 72 hrs by M27-A2 CLSI method. Type of data set: functional, organism-based.
The next data set relates to SK-MEL. The experiment in a line: Cytotoxicity against human SK-MEL cells at 10 ug/ml by neutral red assay. The format is cell-based.
Another data set concerns KB. The experiment in a line: Cytotoxicity against human KB cells at 10 ug/ml by neutral red assay. The format is cell-based.

Eight compounds from ChEMBL document CHEMBL1938270, “Synthesis and antifungal activity of natural product-based 6-alkyl-2,3,4,5-tetrahydropyridines” (J Nat Prod, 2011) can be followed below.

In brackets after ≈: the same amount, converted by molar mass. Activity calls are given as the source filed them.

One may read the MFC as the smallest concentration meeting the test's criterion for killing the fungus. In general, MIC refers to the lowest concentration that inhibits growth of the organism. As to `C[C@@H]1[C@H](O)[C@@H](C)/C=C/C=C/C=C/C=C/C=C/C=C/C=C/[C@H](O[C@@H]2O[C@H](C)[C@@H](O)[C@H](N)[C@@H]2O)C[C@@H]2O[C@](O)(C[C@@H](O)C[C@@H](O)[C@H](O)CC[C@@H](O)C[C@@H](O)CC(=O)O[C@H]1C)C[C@H](O)[C@H]2C(=O)O` [AMPHOTERICIN B], the minimum fungicidal concentration (MFC) was found to be 0.47 µg/mL (≈ 0.509 µM) in the data set with Cryptococcus neoformans [1], 0.94 µg/mL (≈ 1.02 µM) in the data set on Nakaseomyces glabratus [2] and 1.25 µg/mL (≈ 1.35 µM) with Pichia kudriavzevii [3]. Besides, the MIC against Cryptococcus neoformans [1] was 0.47 µg/mL (≈ 0.509 µM); in the data set on Nakaseomyces glabratus [2], 0.63 µg/mL (≈ 0.682 µM); with Pichia kudriavzevii [3], 1.25 µg/mL (≈ 1.35 µM); in the data set with Candida albicans [4], 0.47 µg/mL (≈ 0.509 µM).

With `CCCCCCCCCCCCCC1=NCCCC1`, the outcome in the data set on Aspergillus fumigatus [5], in the data set on Nakaseomyces glabratus [6], with Aspergillus fumigatus [7], in the data set with Candida albicans [8] and in the data set on Cryptococcus neoformans [9] was inactive.

Regarding `CCCCCCCCCCCCCCCCCCC1=NCCCC1`, the MFC with Cryptococcus neoformans [1] and against Nakaseomyces glabratus [2] was 15 µg/mL (≈ 44.7 µM) in each case. Also, the MIC against Cryptococcus neoformans [1] and against Nakaseomyces glabratus [2] was 10 µg/mL (≈ 29.8 µM) in each case. For the same compound, the Activity entry in the data set on BT-549, with SK-OV-3, in the data set with Vero, in the data set with LLC-PK1, in the data set with SK-MEL and with KB was “Non-toxic” in each case. The MIC result with Candida albicans [8] and in the data set with Pichia kudriavzevii [10] was “inactive” in each case.

Turning to `CCCCCCCCCCCCCCCCCC1=NCCCC1`, the MFC came out at 3.8 µg/mL (≈ 11.8 µM) against Cryptococcus neoformans [1], 7.5 µg/mL (≈ 23.3 µM) against Nakaseomyces glabratus [2] and 15 µg/mL (≈ 46.6 µM) against Pichia kudriavzevii [3]. For the same compound, the minimum inhibitory concentration (MIC) in the data set with Cryptococcus neoformans [1] was 2.5 µg/mL (≈ 7.77 µM); with Nakaseomyces glabratus [2], 5 µg/mL (≈ 15.5 µM); in the data set with Pichia kudriavzevii [3], 15 µg/mL (≈ 46.6 µM). The Activity result with BT-549, with SK-OV-3, in the data set on Vero, in the data set with LLC-PK1, with SK-MEL and in the data set with KB was “Non-toxic” throughout. Further, the MIC entry in the data set on Candida albicans [8] was “inactive”.

In the data set on Cryptococcus neoformans [1], `CCCCCCCCCCCCCCC1=NCCCC1` gave an MFC of 10 µg/mL (≈ 35.8 µM). The compound also showed a minimum inhibitory concentration (MIC) in the data set with Cryptococcus neoformans [1] of 10 µg/mL (≈ 35.8 µM). Further, the MIC result with Nakaseomyces glabratus [6], in the data set on Candida albicans [8] and in the data set with Pichia kudriavzevii [10] was “inactive” each time. Also, the Activity entry in the data set on BT-549, in the data set on SK-OV-3, in the data set on Vero, with LLC-PK1, with SK-MEL and with KB was “Non-toxic” each time.

With `CCCCCCCCCCCCCCCC1=NCCCC1`, the minimal fungicidal concentration (MFC) stood at 12.5 µg/mL (≈ 42.6 µM) in the data set with Cryptococcus neoformans [1], 15 µg/mL (≈ 51.1 µM) in the data set with Nakaseomyces glabratus [2] and 15 µg/mL (≈ 51.1 µM) in the data set with Pichia kudriavzevii [3]. The minimal inhibitory concentration (MIC) in the data set on Cryptococcus neoformans [1] came out at 11.2 µg/mL (≈ 38.2 µM); with Nakaseomyces glabratus [2], 10 µg/mL (≈ 34.1 µM); in the data set with Pichia kudriavzevii [3], 10 µg/mL (≈ 34.1 µM). For the same compound, the Activity entry in the data set with BT-549, in the data set with SK-OV-3, with Vero, with LLC-PK1, in the data set on SK-MEL and in the data set on KB was “Non-toxic” each time. In addition, in the data set with Candida albicans [8], the MIC result is “inactive”.

With `CCCCCCCCCCCCCCCCC1=NCCCC1`, the minimum fungicidal concentration (MFC) against Cryptococcus neoformans [1] came out at 3.8 µg/mL (≈ 12.4 µM); in the data set on Nakaseomyces glabratus [2], 7.5 µg/mL (≈ 24.4 µM); with Pichia kudriavzevii [3], 7.5 µg/mL (≈ 24.4 µM); in the data set with Candida albicans [4], 15 µg/mL (≈ 48.8 µM). For the same compound, the MIC against Cryptococcus neoformans [1] worked out at 3.8 µg/mL (≈ 12.4 µM); against Nakaseomyces glabratus [2] it was 7.5 µg/mL (≈ 24.4 µM); against Pichia kudriavzevii [3], 7.5 µg/mL (≈ 24.4 µM); against Candida albicans [4], 15 µg/mL (≈ 48.8 µM). For the same compound, the Activity result in the data set with BT-549, with SK-OV-3, in the data set with Vero, in the data set on LLC-PK1, in the data set on SK-MEL and in the data set with KB was “Non-toxic” in each case.

In the case of `CCCCCCCCCCCCC1=NCCCC1`, the result in the data set with Aspergillus fumigatus [5], with Nakaseomyces glabratus [6], with Aspergillus fumigatus [7], in the data set on Candida albicans [8] and in the data set with Cryptococcus neoformans [9] was inactive.
